Experimental data reported in PubChem BioAssay (NCI).
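Each compound was tested at five concentrations against cells in 96-well plates for 48 hours. GI50 is the concentration that inhibits growth by half. At the TGI there is no net growth.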 *1 amine or outer side, *2 acyl side, *3 side chain or, on linkers, in order; H or OH if unused. Where a SMILES comes first, the peptide text is derived from it. Bridges are numbered along the chain shown (N, C = ends). [ ]: non-standard residue; d: D form. The star is where a group is joined. X19 = O=C([C@H](N[*:1])c1ccc(O[C@H]2O[C@@H](CO)[C@@H](O)[C@@H](O)[C@H]2O[C@@H]2O[C@H](CO)[C@H](O)[C@H](O)[C@@H]2O)cc1)[*:2]; X18 = NC(=O)[C@@H](O[*:3])[C@H](N[*:1])C(=O)[*:2]; X20 = O=C([C@H](N[*:1])c1ccc(O)c(Cl)c1)[*:2]; d(aThr) = C[C@@H](O)[C@@H](N)C(=O)O; dHpg = N[C@@H](C(=O)O)c1ccc(O)cc1; X17 = CC(C)C/C=C/C=C/C(=O)*; dOrn = NCCC[C@@H](N)C(=O)O

Columns and labels:
Assay in all cases: growth of human tumour cells (NCI), 48 h
RPMI-8226 leukemia = test system: RPMI-8226 leukemia
OVCAR-3 ovarian = test system: OVCAR-3 ovarian
UACC-257 melanoma = test system: UACC-257 melanoma
NCI-H522 lung = test system: NCI-H522 lung
HOP-62 NSCLC = test system: HOP-62 NSCLC
LOX IMVI melanoma = test system: LOX IMVI melanoma
NCI-H460 lung = test system: NCI-H460 lung
TK-10 renal = test system: TK-10 renal

Row | SMILES | GI50 (RPMI-8226 leukemia) [µM] | TGI (RPMI-8226 leukemia) [µM] | GI50 (OVCAR-3 ovarian) [µM] | TGI (OVCAR-3 ovarian) [µM] | GI50 (UACC-257 melanoma) [µM] | TGI (UACC-257 melanoma) [µM] | GI50 (NCI-H522 lung) [µM] | TGI (NCI-H522 lung) [µM] | GI50 (HOP-62 NSCLC) [µM] | TGI (HOP-62 NSCLC) [µM] | GI50 (LOX IMVI melanoma) [µM] | TGI (LOX IMVI melanoma) [µM] | GI50 (NCI-H460 lung) [µM] | TGI (NCI-H460 lung) [µM] | GI50 (TK-10 renal) [µM] | TGI (TK-10 renal) [µM]
1 | O=C(O[C@H]1CN[C@H](C#Cc2cc3ncnc(Nc4ccc(OCc5cccc(F)c5)c(Cl)c4)c3s2)C1)N1CCOCC1 | 4.48 | 17.3 | 4.12 | 11.1 | > 19.1 | > 25 | 1.41 | 8.12 | > 13 | > 25 | 7.72 | > 25 | 6.4 | > 25 | 0.17 | 8.41
2 | O=C(NC1CCN(Cc2ccccc2)CC1)c1cc(C(=O)NC2CCN(Cc3ccccc3)CC2)cc(C(=O)NC2CCN(Cc3ccccc3)CC2)c1 | 5.52 | 20.8 | 10.7 | 44.6 | 8.08 | 16.5 | 2.03 | 10.1 | 9.33 | 19.7 | 1.74 | 6.94 | 8.07 | 16.9 | 18.3 | > 50
3 | C/C=C1\C(=O)O[C@@H]2C1C[C@@H]1O[C@H]2[C@H](C)CCC/C(C)=C/CC[C@@]1(C)O (stereo not given in full) | 3.27 | > 100 | 1.48 | 11.9 | 4.2 | 10.9 | 2.29 | 7.06 |  |  | 5.8 | 21.5 | 4.81 | 25.7 | 4.46 | 13.5
4 | C[C@@H](Oc1cc(NS(=O)(=O)N2CCC2)nc(SCc2cccc(F)c2F)n1)[C@@H](O)CO | > 100 | > 100 | > 100 | > 100 | > 100 | > 100 | > 100 | > 100 | > 100 | > 100 | > 100 | > 100 | > 100 | > 100 | > 100 | > 100
5 | N#Cc1ccc(-c2nc3ccc(Cl)cc3[nH]2)cc1 |  | > 100 |  | > 100 |  |  |  | > 100 |  | > 100 |  |  |  |  |  | 
6 | CC(C)C/C=C/C=C/C(=O)N[C@@H](CC(N)=O)C(=O)N[C@@H]1C(=O)N[C@H](c2ccc(O)cc2)C(=O)N[C@H](CCCN)C(=O)N[C@H]([C@@H](C)O)C(=O)N[C@H](c2ccc(O)cc2)C(=O)N[C@H](c2ccc(O)cc2)C(=O)N[C@H]([C@H](C)O)C(=O)N[C@H](Cc2ccccc2)C(=O)N[C@H](CCCN)C(=O)N[C@H](c2ccc(O[C@H]3O[C@@H](CO)[C@@H](O)[C@@H](O)[C@H]3O[C@@H]3O[C@H](CO)[C@H](O)[C@H](O)[C@@H]3O)cc2)C(=O)N[C@H]([C@H](C)O)C(=O)N[C@H](c2ccc(O)cc2)C(=O)NCC(=O)N[C@H](CC(C)C)C(=O)N[C@H](C)C(=O)N[C@H](c2ccc(O)c(Cl)c2)C(=O)O[C@@H]1C(N)=O (X17-N[X18][dHpg][dOrn][d(aThr)][dHpg][dHpg][dT][dF][dOrn][X19][dT][dHpg]G[dL][dA][X20]; ester 2-C) | 59.8 | > 100 | 46.5 | > 100 | 21.9 | 47.4 | 33.9 | > 100 | 29.9 | 78.2 | 29.5 | > 100 | 23.5 | 66.9 | 38.7 | 91.1
7 | C#Cc1cccc(Nc2ncnc3ccc(-c4cnc(Cl)c(NS(C)(=O)=O)c4)cc23)c1 | 0.412 | 2.66 | 0.197 | 1.29 | 0.307 | 6.57 | 0.332 | 4.33 | 0.292 | 10.7 | 0.281 | 1.8 | 0.572 | 11.7 |  | 
8 | COc1cc([C@@H]2c3cc4c(cc3[C@H](OC(C)=O)[C@H]3COC(=O)[C@H]23)OCO4)cc(OC)c1OC | 0.03 | 3.19 | 0.034 | > 100 | > 100 | > 100 | 0.018 | 0.0722 | 0.0483 | > 100 | 0.0293 | > 100 | 0.0317 | > 100 | 75.2 | > 100
9 | Cc1ccc(C(=O)CCC2C(=O)CC(C)(C)CC2=O)cc1 |  |  |  | > 100 |  | > 100 |  | 34.4 |  | > 100 |  | > 100 |  | > 100 |  | > 100
10 | O=C(Nc1ccc(Cl)cc1)c1cc2cc(F)ccc2cc1O | 0.591 | 7.16 | 1.09 | > 100 | 1.34 | 5.2 | 0.359 | 3.03 | 2.01 | 7.56 | 2.11 | 10.7 | 0.882 | > 100 | 2.39 | 58.9
11 | ClC1(c2ccccc2)c2ccc(Br)cc2-c2cc(Br)ccc21 |  | 64.8 |  | 30.6 |  | 34.9 |  | 30.6 |  | 33.4 |  | 33.2 |  | 27.4 |  | 34.8
12 | NCCCn1c2c(c3cc4c(cc3c1=O)OCO4)C(=O)c1ccccc1-2 |  | 0.208 | 0.564 | 1.27 | 1.38 | 4.7 | 1.92 | 4.39 | 0.187 | 0.729 | 0.14 | > 100 | 2.06 | 4.11 | 1.98 | 5.75
13 | CCn1cc(C(=O)N/N=C/c2cccc(F)c2)c(=O)c2cc(F)c(N3CCNC(C)C3)c(F)c21 (stereo not given) | 1.79 | 3.77 | 1.82 | 3.4 | 1.67 | 3.17 | 1.76 | 3.32 | 1.66 | 3.09 | 1.71 | 3.21 | 1.68 | 3.14 | 1.73 | 3.18
14 | O=C1CCC2=C3C4CCCCC4C(=O)C4CCCC(OC2C1)C34 (stereo not given) | 0.398 | 2.65 | 0.428 | 2.73 | 1.65 | 4.93 | 0.434 | 1.27 | 2.72 | 32.8 | 0.278 |  | 0.87 | 4.57 | 6.36 | > 29.5
15 | COc1cc(C)[nH]c(=O)c1CN1CCc2c(Cl)cc([C@H](OC)C3COC3)c(Cl)c2C1=O | > 100 | > 100 | > 100 | > 100 | > 100 | > 100 | > 100 | > 100 | > 100 | > 100 | > 100 | > 100 | > 100 | > 100 | > 100 | > 100
